Experiments:
[1] = cited from earlier work
[2] = Example II irritation studies of nasal spray solutions without insulin (10 days); type: in vivo, human; details: longer than 5 days, polysorbate-80 added to nasal spray solution
Method: Chronic irritation studies, i.e., longer than 5 days, using polysorbate-80 according to the present invention have also been carried out.
Studies were carried out to determine the effect on nasal irritation of the addition of varying amounts of polysorbate-80 to nasal spray solutions containing N-9. […] In each study ten normal subjects were treated with one squirt (about 0.15 ml) of the nasal spray solution three times a day for ten consecutive days. After administration, the subjects were questioned about any symptoms and findings recorded. The nasal passages were examined on the fifth and tenth days of treatment by an ENT ([…], nose and throat) specialist and findings recorded.
The nasal spray solutions used in the study comprised 1% of a mixture of polysorbate-80:N-9, 1:9, wt:wt; 0.5% of a mixture of polysorbate-80:N-9, 1:9, wt:wt; 0.25% of a mixture of polysorbate-80:N-9, 1:9, wt:wt; 1% of a mixture of polysorbate-80:N-9, 1:3, wt:wt; 0.5% of a mixture of polysorbate-80:N-9, 1:3, wt:wt; 0.25% of a mixture of polysorbate-80:N-9, 1:3, wt:wt; 0.1% N-9 or a saline placebo. All of the nasal spray solutions produced minor changes in nasal mucosa and minor symptomatic complaints but the number encountered with 0.5% P-80:N-9, 1:9, and 0.5% P-80:N-9:1:3 (4 out of 10 subjects in each group) most closely paralleled the saline placebo (7 out of 20 subjects).

Substance | promotion of insulin absorption ([1]; 0.1% laureth-9, nasally) | absorption of nasally administered insulin ([1]; humans) | tolerability of nasal administration ([1]; laureth-9 at 0.1% by weight, nasally) | nasal irritation accompanying administration ([1]; nasally administered insulin in humans, effects proportional to laureth-9 concentration) | chronic irritation [2]
laureth-9 | only moderately effective | enhanced absorption | tolerated by all subjects tested | often accompanied by nasal irritation such as stinging, congestion and rhinorrhea | 
polysorbate-80 |  |  |  |  | reduces chronic irritation

Source: patent US5902789A, “Nasal administration of drugs” (Fisons Corporation, priority 1995, dated 1999)
